Measurements taken from ChEMBL document CHEMBL1201862, “PubChem BioAssay data set” (2004).
One block for each molecule: values may come before it. The source made the active and inactive calls.

Experiments:
Cytochrome P450 2C9 [1] = target: T1, Cytochrome P450 2C9 (Homo sapiens, UniProt P11712)
[2] = NIH-3T3 fibroblast cytotoxicity, dose response, cytotoxicity control, cell-based, fluorescence, Alamar Blue, secondary assay (AID 2327); assay type: functional;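 note: NIH-3T3 mouse fibroblasts cultured with fluconazole at 8 µg/mL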
[3] = fluconazole-exposed Candida albicans growth modulators – fluorescence, retest, confirmation (AID 2467); assay type: functional, cell-based
Cytochrome P450 3A4 = Cytochrome P450 3A4 (Homo sapiens, UniProt P08684);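 note: CYP3A4 tested as one member of a cytochrome P450 panel screen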
Sequence of Cytochrome P450 3A4 (P08684 whole entry): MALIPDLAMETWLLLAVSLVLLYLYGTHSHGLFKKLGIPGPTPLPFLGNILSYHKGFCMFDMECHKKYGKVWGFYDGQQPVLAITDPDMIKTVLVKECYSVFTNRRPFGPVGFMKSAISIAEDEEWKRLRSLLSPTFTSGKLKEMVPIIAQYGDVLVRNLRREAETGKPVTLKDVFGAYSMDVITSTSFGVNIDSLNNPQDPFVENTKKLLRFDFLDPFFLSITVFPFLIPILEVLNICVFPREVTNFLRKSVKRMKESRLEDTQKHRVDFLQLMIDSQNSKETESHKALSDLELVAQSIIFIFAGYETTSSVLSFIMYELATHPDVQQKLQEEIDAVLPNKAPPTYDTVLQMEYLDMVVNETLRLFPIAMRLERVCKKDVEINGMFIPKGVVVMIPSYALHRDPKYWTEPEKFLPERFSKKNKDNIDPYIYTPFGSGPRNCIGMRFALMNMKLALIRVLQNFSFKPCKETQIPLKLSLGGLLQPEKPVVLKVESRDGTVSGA

Cytochrome P450 2C19 = Cytochrome P450 2C19 (Homo sapiens, UniProt P33261); assay: Cytochrome panel assay with activity outcomes. Panel member name: p450-cyp2c19 Compounds with AC50 equal or less than 10 uM are considered active; assay type: functional; details: read-out: AC50
Sequence of Cytochrome P450 2C19 (P33261 whole entry): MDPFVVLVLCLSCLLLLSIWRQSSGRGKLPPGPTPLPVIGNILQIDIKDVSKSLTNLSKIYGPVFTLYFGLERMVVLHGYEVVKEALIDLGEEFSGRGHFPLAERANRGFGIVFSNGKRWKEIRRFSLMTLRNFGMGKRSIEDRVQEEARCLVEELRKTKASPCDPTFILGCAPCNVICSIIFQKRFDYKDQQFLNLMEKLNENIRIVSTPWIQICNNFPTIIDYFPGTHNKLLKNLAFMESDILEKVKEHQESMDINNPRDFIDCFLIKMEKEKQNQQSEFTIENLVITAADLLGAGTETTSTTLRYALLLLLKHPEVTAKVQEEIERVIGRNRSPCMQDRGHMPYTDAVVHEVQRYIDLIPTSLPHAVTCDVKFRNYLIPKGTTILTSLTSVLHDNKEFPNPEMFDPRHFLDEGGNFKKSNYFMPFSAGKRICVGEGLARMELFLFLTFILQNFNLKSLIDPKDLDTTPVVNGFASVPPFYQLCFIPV

Cytochrome P450 2C9 [4] = target: T1, Cytochrome P450 2C9; remark: listed apart in the source
[5] = target: FAD-linked sulfhydryl oxidase ALR (Homo sapiens, UniProt P55789); assay: ALR-catalysed DTT oxidation blockers – biochemical, H2O2 detection, luminescence, cherry-pick, dose response (AID 493248)
Sequence of FAD-linked sulfhydryl oxidase ALR (P55789 whole entry): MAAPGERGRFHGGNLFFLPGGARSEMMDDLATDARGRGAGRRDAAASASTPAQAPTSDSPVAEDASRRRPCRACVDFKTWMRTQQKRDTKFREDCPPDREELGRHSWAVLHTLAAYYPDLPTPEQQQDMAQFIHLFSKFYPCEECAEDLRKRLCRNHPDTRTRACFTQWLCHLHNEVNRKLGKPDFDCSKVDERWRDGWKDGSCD

[6] = target: T2, Heat shock factor protein 1 (Mus musculus, UniProt P38532); assay: enhancement of HSF1-driven luciferase signal – cell-based, NIH3T3, luminescence, dose retest, confirmation (AID 435004); assay type: functional;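 note: stress induced by proteasome inhibitor MG132 added 30 min after compound; luciferase reporter driven by HSF1 response element in NIH3T3 cells; actives raise luminescence as potentiators of the MG132 stress response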
T2 sequence (P38532 whole entry): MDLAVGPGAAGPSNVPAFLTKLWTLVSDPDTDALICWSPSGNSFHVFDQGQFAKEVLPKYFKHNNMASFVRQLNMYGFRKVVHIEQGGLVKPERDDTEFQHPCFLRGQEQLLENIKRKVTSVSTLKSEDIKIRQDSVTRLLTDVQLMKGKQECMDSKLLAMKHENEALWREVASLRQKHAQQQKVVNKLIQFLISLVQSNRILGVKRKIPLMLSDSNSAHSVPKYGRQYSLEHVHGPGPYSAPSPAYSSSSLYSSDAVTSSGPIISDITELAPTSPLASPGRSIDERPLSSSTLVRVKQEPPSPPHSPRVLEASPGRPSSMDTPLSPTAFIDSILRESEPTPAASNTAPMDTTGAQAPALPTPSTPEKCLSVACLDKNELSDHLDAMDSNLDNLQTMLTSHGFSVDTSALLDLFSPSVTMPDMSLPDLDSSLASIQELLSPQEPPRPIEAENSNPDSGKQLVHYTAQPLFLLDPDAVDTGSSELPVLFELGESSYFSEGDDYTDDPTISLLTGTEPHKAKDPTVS

Cytochrome P450 2D6 = Cytochrome P450 2D6 (Homo sapiens, UniProt P10635);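 note: CYP2D6 member of a cytochrome P450 panel assay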
Sequence of Cytochrome P450 2D6 (P10635 whole entry): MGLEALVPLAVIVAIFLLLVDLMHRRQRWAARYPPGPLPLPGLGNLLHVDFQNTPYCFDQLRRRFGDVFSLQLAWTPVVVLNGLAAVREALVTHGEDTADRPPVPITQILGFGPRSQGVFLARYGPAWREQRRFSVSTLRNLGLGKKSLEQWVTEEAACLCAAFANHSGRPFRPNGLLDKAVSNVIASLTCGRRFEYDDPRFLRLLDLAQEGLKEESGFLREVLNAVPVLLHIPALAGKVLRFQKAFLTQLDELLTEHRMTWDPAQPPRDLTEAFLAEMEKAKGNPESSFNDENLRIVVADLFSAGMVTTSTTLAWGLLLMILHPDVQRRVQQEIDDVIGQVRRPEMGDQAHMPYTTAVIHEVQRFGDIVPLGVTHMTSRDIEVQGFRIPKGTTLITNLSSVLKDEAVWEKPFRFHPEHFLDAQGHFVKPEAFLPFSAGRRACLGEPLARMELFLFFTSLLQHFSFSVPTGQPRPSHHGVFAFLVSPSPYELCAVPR

T1 sequence (P11712 whole entry): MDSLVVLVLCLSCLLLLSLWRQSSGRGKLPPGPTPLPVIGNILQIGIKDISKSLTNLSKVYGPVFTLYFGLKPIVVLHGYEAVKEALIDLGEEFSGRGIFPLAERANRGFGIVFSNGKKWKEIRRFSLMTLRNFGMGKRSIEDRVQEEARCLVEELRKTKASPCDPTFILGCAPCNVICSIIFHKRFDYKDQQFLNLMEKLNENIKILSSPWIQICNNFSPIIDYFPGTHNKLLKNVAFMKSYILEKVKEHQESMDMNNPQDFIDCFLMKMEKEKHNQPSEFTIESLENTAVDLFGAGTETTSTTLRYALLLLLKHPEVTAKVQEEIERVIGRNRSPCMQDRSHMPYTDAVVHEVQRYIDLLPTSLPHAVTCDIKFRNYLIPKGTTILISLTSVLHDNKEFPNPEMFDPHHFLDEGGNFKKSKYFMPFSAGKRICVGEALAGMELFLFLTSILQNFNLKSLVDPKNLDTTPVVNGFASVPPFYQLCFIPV

Structure (SMILES): O=C(CCCCCN1C(=O)c2cccc3cccc(c23)C1=O)N1CCOCC1
EC50 [2]: 22.3 µM (active)
EC50 [3]: > 38 µM (not active)

Structure (SMILES): Cc1cc(C)c2cc(CN(Cc3ccco3)C(S)=NCC3CCCO3)c(O)nc2c1 (stereo not given)
EC50 [6]: > 260 µM (inactive)

Structure (SMILES): CN(C)c1ccnc(-c2cccc(NS(C)(=O)=O)c2)n1
AC50 (Cytochrome P450 3A4): 31.6 µM (inconclusive)
AC50 (Cytochrome P450 2C9 [1]): inconclusive

Structure (SMILES): O[C@@H]1C2CCCC1[C@]1(O)CCCCC1C2 (stereo not given in full)
EC50 [6]: > 260 µM (inactive)

Structure (SMILES): O=C(COc1ccc(Cl)cc1)NCCCNC(=O)c1ccccn1
EC50 [6]: > 260 µM (inactive)

Structure (SMILES): COc1cc(OC)c(C#N)c(S(=O)(=O)Cc2ccccc2)c1
AC50 (Cytochrome P450 2C9 [1]): inconclusive

Structure (SMILES): O=S(=O)(c1ccccc1)N1CCC2(CCN(Cc3ccncc3)CC2)CC1
AC50 (Cytochrome P450 2D6): 25.1 µM (inconclusive)
AC50 (Cytochrome P450 2C9 [4]): 25.1 µM (inconclusive)

Structure (SMILES): O=C(c1cc(C(F)(F)F)cc(C(F)(F)F)c1)N1CCC2(CC1)CCN(c1ncccn1)CC2
AC50 (Cytochrome P450 2C9 [1]): inconclusive

Structure (SMILES): O=C(COC(=O)C1CC2C=CC1C2)Nc1ccc2c(c1)OC(F)(F)O2 (stereo not given)
EC50 [6]: > 260 µM (inactive)

Structure (SMILES): c1coc(CN2CCN(C(c3cccs3)c3nnnn3C3CCCC3)CC2)c1 (stereo not given)
AC50 (Cytochrome P450 2C9 [4]): 31.6 µM (inconclusive)

Structure (SMILES): CSc1ccc(C#N)cc1NC(=O)c1cccc(Cl)c1
AC50 (Cytochrome P450 2D6): 10 µM (inconclusive)
AC50 (Cytochrome P450 2C9 [4]): 39.8 µM (inconclusive)

Structure (SMILES): COc1ccc2[nH]c(C(=O)c3ccccc3)cc2c1
AC50 (Cytochrome P450 2C9 [4]): 39.8 µM (inconclusive)

Structure (SMILES): CSc1cccc(NC(=O)c2ccc(Cl)nc2)c1
AC50 (Cytochrome P450 2D6): 14.1 µM (inconclusive)
AC50 (Cytochrome P450 2C19): 25.1 µM (inconclusive)
AC50 (Cytochrome P450 2C9 [4]): 39.8 µM (inconclusive)

Structure (SMILES): CCCCN1C(=O)CN(CCc2ccccc2)C(=O)C1c1ccc(OC)cc1 (stereo not given)
AC50 (Cytochrome P450 2D6): 39.8 µM (inconclusive)
AC50 (Cytochrome P450 2C9 [4]): 20 µM (inconclusive)

Structure (SMILES): COc1ccccc1NC(=O)c1cnc2n(c1=O)CCS2
AC50 (Cytochrome P450 3A4): 31.6 µM (inconclusive)
AC50 (Cytochrome P450 2C9 [1]): inconclusive

Next, values leading:

AC50 (Cytochrome P450 2C9 [1]): inconclusive
Structure (SMILES): COc1ccc(CC(=S)N2CCOCC2)cc1OC

AC50 (Cytochrome P450 3A4): 14.1 µM (inconclusive)
AC50 (Cytochrome P450 2C19): 31.6 µM (inconclusive)
AC50 (Cytochrome P450 2C9 [4]): 10 µM (inconclusive)
Structure (SMILES): O=C(NCc1ccc(F)cc1)C1CCN(S(=O)(=O)N2CCCCC2)CC1

AC50 [5]: 18.1 µM (active)
Structure (SMILES): O=C(c1ccco1)N1CCN=C1SCc1cccc(Cl)c1

EC50 [6]: > 260 µM (inactive)
Structure (SMILES): Cc1cccc(N(C(=O)c2ccc(CN3CCOCC3)o2)C(C(=O)NC(C)(C)C)c2ccc(F)cc2)c1 (stereo not given)

AC50 (Cytochrome P450 2C9 [1]): inconclusive
Structure (SMILES): Cc1cc2ccccc2c(=O)n1CC(=O)NCC(=O)N1CCCC1

AC50 (Cytochrome P450 2D6): 17.8 µM (inconclusive)
AC50 (Cytochrome P450 3A4): 25.1 µM (inconclusive)
AC50 (Cytochrome P450 2C9 [4]): 8.91 µM (inconclusive)
Structure (SMILES): CCN1C/C(=C\c2cccc(C)c2)c2nc3ccccc3c(C(=O)O)c2C1

AC50 (Cytochrome P450 2C9 [1]): inconclusive
Structure (SMILES): CCc1ccc(N2C(=O)c3ccc4c5c(ccc(c35)C2=O)CC4)cc1

EC50 [6]: > 260 µM (inactive)
Structure (SMILES): CCOC(=O)C1=C(c2ccccc2)NC(SC)=C(C#N)C1c1ccco1 (stereo not given)
